{"source": "paper PMC8212425", "about": "(Translational Vision Science & Technology, 2021)", "key": {"[1]": {"type": "in vivo, Dutch Belted rabbits", "details": "for Cmax / Tmax: 4 mg; for AUC(0-t): DB rabbits, 91 days"}, "[2]": {"type": "in vivo, rabbits", "details": "rabbit, RCS, sc, 1.05 mg/eye"}, "[3]": {"type": "in vivo, New Zealand White rabbits", "details": "for Plasma concentration / AUC(0-t): 1 mg/eye; for Plasma concentration: below LOQ; for Cmax / Tmax: New Zealand White, rabbit, 1 mg; for AUC(0-t): NZW rabbits"}, "[4]": {"type": "in vivo, Dutch Belted rabbits", "details": "for Tmax / Cmax / half-life: Dutch Belted, rabbit, sc; for AUC(0-t): DB rabbits"}, "[5]": {"details": "Dutch Belted, rabbit, RPE-choroid-sclera complex (RCS), sc"}, "[6]": {"details": "Dutch Belted, rabbit, vitreous humor, sc"}, "[7]": {"details": "SC, 4 mg/eye, throughout 91-day study, not detected/quantifiable, LOQ"}, "[8]": {"details": "vitreous humor, topical or ocular"}, "[9]": {"details": "RPE-choroid-sclera complex (RCS), 0.03 mg"}, "[10]": {"details": "RPE-choroid-sclera complex (RCS), 0.1 mg"}, "[11]": {"details": "SC, 0.03 and 0.10 mg/eye, 10-week study"}, "[12]": {"details": "SC, 0.03 and 0.1 mg/eye, any timepoint, not quantifiable, LOQ"}}, "note": "Where two headings read alike, the source gives them in different places.", "data": [{"compound": "CNC(=O)c1ccccc1Sc1ccc2c(/C=C/c3ccccn3)n[nH]c2c1", "note": "[Axitinib]", "values": [{"measurement": "Cmax", "setting": "[1]; [5]", "result": "2.2e+07", "unit": "ng/g"}, {"measurement": "Tmax", "setting": "[1]; [5]", "result": 96, "unit": "h"}, {"measurement": "half-life", "setting": "[1]; Dutch Belted, rabbit, RPE-choroid-sclera complex (RCS), sc, 4 mg/eye", "result": 143, "unit": "days"}, {"measurement": "Cmax", "setting": "[1]; Dutch Belted, rabbit, retina, sc", "result": 325000, "unit": "ng/g"}, {"measurement": "concentration at 91 day", "setting": "[1]; Dutch Belted, rabbit, retina, sc, 4 mg/eye", "result": 305000, "unit": "ng/g"}, {"measurement": "Cmax", "setting": "[1]; [6]", "result": 858, "unit": "ng/mL"}, {"measurement": "Tmax", "setting": "[1]; [6]", "result": 96, "unit": "h"}, {"measurement": "AUC(0-t)", "setting": "[1]; RCS (RPE-choroid-sclera, dose depot), SC, 4 mg/eye", "result": "1,260,000 µg·d/g"}, {"measurement": "Aqueous humor concentration", "setting": "[1]; [7]", "result": "< 1", "unit": "ng/mL"}, {"measurement": "Plasma concentration", "setting": "[1]; [7]", "result": "< 0.15", "unit": "ng/mL"}, {"measurement": "Vitreous humor level lower than that of RCS and retina", "setting": "[1]; SC, 4 mg/eye, density of vitreous humor assumed 1", "result": "3 to 4", "unit": "log orders"}, {"measurement": "AUC(0-t)", "setting": "[1]; vitreous humor, SC, 4 mg/eye", "result": "31.1 µg·d/g or µg*d/mL"}, {"measurement": "concentration at 182 day", "setting": "[2]", "result": 199000, "unit": "ng/g"}, {"measurement": "Plasma concentration", "setting": "[3]; IVT, all timepoints", "result": "< 0.150", "unit": "ng/mL"}, {"measurement": "Cmax", "setting": "[3]; posterior eye cup (PEC), sc", "result": 799000, "unit": "ng/g"}, {"measurement": "Tmax", "setting": "[3]; posterior eye cup (PEC), sc", "result": 6, "unit": "h"}, {"measurement": "Cmax", "setting": "[3]; posterior eye cup (PEC), topical or ocular", "result": 124000, "unit": "ng/g"}, {"measurement": "Cmax", "setting": "[3]; vitreous humor, sc", "result": 3670, "unit": "ng/g"}, {"measurement": "Tmax", "setting": "[3]; vitreous humor, sc", "result": 168, "unit": "h"}, {"measurement": "Cmax", "setting": "[3]; [8]", "result": "1.28e+06", "unit": "ng/g"}, {"measurement": "Tmax", "setting": "[3]; [8]", "result": 0.08, "unit": "h"}, {"measurement": "AUC(0-t)", "setting": "[3]; PEC (posterior eye cup), SC injection", "result": 5208, "unit": "µg·days/g"}, {"measurement": "AUC(0-t)", "setting": "[3]; PEC, IVT injection", "result": 471, "unit": "µg·days/g"}, {"measurement": "Plasma concentration", "setting": "[3]; SC, all timepoints except 6 hours", "result": "< 0.150", "unit": "ng/mL"}, {"measurement": "AUC(0-t)", "setting": "[3]; vitreous humor, IVT injection", "result": 6208, "unit": "µg·days/g"}, {"measurement": "AUC(0-t)", "setting": "[3]; vitreous humor, SC injection", "result": 19, "unit": "µg·days/g"}, {"measurement": "Tmax", "setting": "[4]; RPE-choroid-sclera complex (RCS)", "result": 24, "unit": "h"}, {"measurement": "Cmax", "setting": "[4]; [9]", "result": 37200, "unit": "ng/g"}, {"measurement": "Tmax", "setting": "[4]; [9]", "result": 24, "unit": "h"}, {"measurement": "half-life", "setting": "[4]; [9]", "result": 264, "unit": "h"}, {"measurement": "Cmax", "setting": "[4]; [10]", "result": 232000, "unit": "ng/g"}, {"measurement": "Tmax", "setting": "[4]; [10]", "result": 24, "unit": "h"}, {"measurement": "half-life", "setting": "[4]; [10]", "result": 384, "unit": "h"}, {"measurement": "Cmax", "setting": "[4]; retina, 0.03 mg", "result": 4480, "unit": "ng/g"}, {"measurement": "Tmax", "setting": "[4]; retina, 0.03 mg", "result": 24, "unit": "h"}, {"measurement": "Cmax", "setting": "[4]; retina, 0.1 mg", "result": 6260, "unit": "ng/g"}, {"measurement": "Tmax", "setting": "[4]; retina, 0.1 mg", "result": 24, "unit": "h"}, {"measurement": "Cmax", "setting": "[4]; vitreous humor, 0.03 mg", "result": 4.01, "unit": "ng/mL"}, {"measurement": "Tmax", "setting": "[4]; vitreous humor, 0.03 mg", "result": 24, "unit": "h"}, {"measurement": "Cmax", "setting": "[4]; vitreous humor, 0.1 mg", "result": 4.58, "unit": "ng/mL"}, {"measurement": "Tmax", "setting": "[4]; vitreous humor, 0.1 mg", "result": 24, "unit": "h"}, {"measurement": "AUC(0-t)", "setting": "[4]; RCS, SC, 0.03 mg/eye", "result": 338, "unit": "µg·days/g"}, {"measurement": "AUC(0-t)", "setting": "[4]; RCS, SC, 0.1 mg/eye", "result": 2320, "unit": "µg·days/g"}, {"measurement": "Mean AUC0-∞ after 0.10 mg dose versus 0.03 mg dose", "setting": "[4]; RCS, SC, dose ratio 3.33", "result": "~7", "unit": "fold"}, {"measurement": "Mean Cmax after 0.10 mg dose versus 0.03 mg dose", "setting": "[4]; RCS, SC, dose ratio 3.33", "result": "approximately 6 fold"}, {"measurement": "RCS (dose depot) level higher than retina", "setting": "[4]; [11]", "result": "1 to 2 orders of magnitude"}, {"measurement": "Retina level higher than vitreous humor", "setting": "[4]; [11]", "result": "3 to 4 orders of magnitude"}, {"measurement": "Aqueous humor concentration", "setting": "[4]; [12]", "result": "< 1", "unit": "ng/mL"}, {"measurement": "Plasma concentration", "setting": "[4]; [12]", "result": "< 0.15", "unit": "ng/mL"}, {"measurement": "AUC(0-t)", "setting": "[4]; retina, SC, 0.03 mg/eye", "result": 17.3, "unit": "µg·days/g"}, {"measurement": "AUC(0-t)", "setting": "[4]; retina, SC, 0.1 mg/eye", "result": 28.1, "unit": "µg·days/g"}]}]}
